According to patent US11339154B2, “Heterocycle-substituted bicyclic azole pesticides” (FMC Corporation, priority 2016, dated 2022):

Key:
Type in all cases: in vivo
[1] = system: cotton melon aphid (Aphis gossypii (Glover)); experiment: whole plant or invertebrate; conditions: 144 h, 6 days; for mortality at 50 ppm: 50 ppm spray; for mortality at 250 ppm: 250 ppm spray
Protocol: (§1) Formulation and Spray Methodology for Tests A-F
(§2) Test compounds were formulated using a solution containing 10% acetone, 90% water and 300 ppm X-77® Spreader Lo-Foam Formula non-ionic surfactant containing alkylarylpolyoxyethylene, free fatty acids, glycols and isopropanol (Loveland Industries, Inc. Greeley, Colo., USA). The formulated compounds were applied in 1 mL of liquid through a SUJ2 atomizer nozzle with 1/8 JJ custom body (Spraying Systems Co. Wheaton, Ill., USA) positioned 1.27 cm (0.5 inches) above the top of each test unit. Test compounds were sprayed at the rates indicated, and each test was replicated three times.
For evaluating control of cotton melon aphid (Aphis gossypii (Glover)) through contact and/or systemic means, the test unit consisted of a small open container with a 6-7-day-old cotton plant inside. This was pre-infested with 30-40 insects on a piece of leaf according to the cut-leaf method, and the soil of the test unit was covered with a layer of sand.
Test compounds were formulated and sprayed at 250 and/or 50 ppm. After spraying, the test units were maintained in a growth chamber for 6 days at 19° C. and 70% relative humidity. Each test unit was then visually assessed for insect mortality.

[2] = system: green peach aphid (Myzus persicae (Sulzer)); experiment: whole plant or invertebrate; conditions: in Raphanus sativus, 144 h, 6 days; for mortality at 50 ppm: 50 ppm spray; for mortality at 250 ppm: 250 ppm spray
Protocol: as §1, §2
For evaluating control of green peach aphid (Myzus persicae (Sulzer)) through contact and/or systemic means, the test unit consisted of a small open container with a 12-15-day-old radish plant inside. This was pre-infested by placing on a leaf of the test plant 30-40 aphids on a piece of leaf excised from a culture plant (cut-leaf method). The aphids moved onto the test plant as the leaf piece desiccated. After pre-infestation, the soil of the test unit was covered with a layer of sand.
Test compounds were formulated and sprayed at 250 and/or 50 ppm. After spraying of the formulated test compound, each test unit was allowed to dry for 1 hour and then a black, screened cap was placed on top. The test units were held for 6 days in a growth chamber at 19-21° C. and 50-70% relative humidity. Each test unit was then visually assessed for insect mortality.

[3] = system: sweetpotato whitefly (Bemisia tabaci (Gennadius)); experiment: whole plant or invertebrate; conditions: in Gossypium hirsutum, 312 h, 13 days; for mortality at 250 ppm: 250 ppm spray; for mortality at 50 ppm: 50 ppm spray
Protocol: as §1, §2
For evaluating control of the sweetpotato whitefly (Bemisia tabaci (Gennadius)) through contact and/or systemic means, the test unit consisted of a small open container with a 12-14-day-old cotton plant inside. Prior to the spray application, both cotyledons were removed from the plant, leaving one true leaf for the assay. Adult whiteflies were allowed to lay eggs on the plant and then were removed from the test unit. Cotton plants infested with at least 15 eggs were submitted to the test for spraying.
Test compounds were formulated and sprayed at 250 and/or 50 ppm. After spraying, the test units were allowed to dry for 1 hour. The cylinders were then removed, and the units were taken to a growth chamber and held for 13 days at 28° C. and 50-70% relative humidity. Each test unit was then visually assessed for insect mortality.

[4] = system: Western Flower Thrips (Frankliniellla occidentalis (Pergande)); experiment: Test F: control of Western Flower Thrips on Soleil bean plant, contact and/or systemic, spray; conditions: 50 ppm spray; 6 days; very good to excellent control; criterion is plant damage and/or 100% mortality
Protocol: as §1, §2
For evaluating control of the Western Flower Thrips (Frankliniellla occidentalis (Pergande)) through contact and/or systemic means, the test unit consisted of a small open container with a 5-7-day-old Soleil bean plant inside.
Test compounds were formulated and sprayed at 250 and/or 50 ppm. After spraying, the test units were allowed to dry for 1 hour, and then 22-27 adult thrips were added to each unit. A black, screened cap was placed on top, and the test units were held for 6 days at 25° C. and 45-55% relative humidity.

Compound | mortality at 50 ppm [1] [%] | mortality at 250 ppm [1] [%] | mortality at 50 ppm [2] [%] | mortality at 250 ppm [2] [%] | mortality at 250 ppm [3] [%] | mortality at 50 ppm [3] [%] | control efficacy: plant damage (30% or less plant damage and/or 100% mortality) [4] [%]
O=C(NCCO)c1cccc(-c2ccc3nn(-c4cccnc4)cc3c2)c1 [Compound 31, N-(2-hydroxyethyl)-3-[2-(3-pyridinyl)-2H-indazol-5-yl]benzamide] | ≥ 80 | ≥ 80 | ≥ 80 | ≥ 80 | – | – | –
O=C(NC1CCOCC1)c1csc(-c2ccc3nn(-c4cccnc4)cc3c2)n1 [Compound 64, 2-[2-(3-pyridinyl)-2H-indazol-5-yl]-N-(tetrahydro-2H-pyran-4-yl)-4-thiazolecarboxamide] | ≥ 80 | ≥ 80 | ≥ 80 | ≥ 80 | ≥ 50 | – | –
CNC(=O)COc1cccc(-c2ccc3nn(-c4cccnc4)cc3c2)c1 [Compound 102, N-methyl-2-[3-[2-(3-pyridinyl)-2H-indazol-5-yl]phenoxy]acetamide] | ≥ 80 | – | ≥ 80 | – | ≥ 50 | ≥ 50 | –
NC(=O)C1(NC(=O)c2cc(-c3ccc4nn(-c5cccnc5)cc4c3)ccn2)CC1 [Compound 86, N-[1-(aminocarbonyl)cyclopropyl]-4-[2-(3-pyridinyl)-2H-indazol-5-yl]-2-pyridinecarboxamide] | ≥ 80 | – | ≥ 80 | – | – | – | –
CC(C)(C#N)NC(=O)c1coc(-c2ccc3nn(-c4cccnc4)cc3c2)n1 [Compound 155, N-(1-cyano-1-methylethyl)-2-[2-(3-pyridinyl)-2H-indazol-5-yl]-4-oxazolecarboxamide] | ≥ 80 | – | ≥ 80 | – | – | – | –
CN(C)C(=O)C1(NC(=O)c2cc(-c3ccc4nn(-c5cccnc5)cc4c3)ccn2)CC1 [Compound 87, N-[1-[(dimethylamino)carbonyl]cyclopropyl]-4-[2-(3-pyridinyl)-2H-indazol-5-yl]-2-pyridinecarboxamide] | ≥ 80 | – | ≥ 80 | – | – | – | –
COC(=O)C(C)(C)NC(=O)c1nnc(-c2ccc3nn(-c4cccnc4)cc3c2)s1 [Compound 128, 2-methyl-N-[[5-[2-(3-pyridinyl)-2H-indazol-5-yl]-1,3,4-thiadiazol-2-yl]carbonyl]alanine methyl ester] | ≥ 80 | – | – | – | – | – | –
O=C(NCc1ncccn1)c1ncsc1-c1ccc2nn(-c3cccnc3)cc2c1 [Compound 78, 5-[2-(3-pyridinyl)-2H-indazol-5-yl]-N-(2-pyrimidinylmethyl)-4-thiazolecarboxamide] | ≥ 80 | – | ≥ 80 | ≥ 80 | – | – | –
COC(CNC(=O)c1ccc(-c2ccc3nn(-c4cccnc4)cc3c2)c(Cl)c1)OC [Compound 18] | – | – | – | – | – | – | ≤ 30
COC(=O)C(C)(C)NC(=O)c1nnc(-c2ccc3nn(-c4cccnc4)cc3c2)o1 [Compound 105, 2-methyl-N-[[5-[2-(3-pyridinyl)-2H-indazol-5-yl]-1,3,4-oxadiazol-2-yl]carbonyl]alanine methyl ester] | ≥ 80 | – | – | – | – | – | –
CNC(=O)C1(NC(=O)c2cc(-c3ccc4nn(-c5cccnc5)cc4c3)ccn2)CC1 [Compound 85, N-[1-[(methylamino)carbonyl]cyclopropyl]-4-[2-(3-pyridinyl)-2H-indazol-5-yl]-2-pyridinecarboxamide] | ≥ 80 | – | ≥ 80 | – | – | – | –
COC(CNC(=O)c1cccc(-c2ccc3nn(-c4cccnc4)cc3c2)c1)OC [Compound 25, N-(2,2-dimethoxyethyl)-3-[2-(3-pyridinyl)-2H-indazol-5-yl]benzamide] | ≥ 80 | ≥ 80 | ≥ 80 | ≥ 80 | ≥ 50 | ≥ 50 | –
